In publication PMC3969763 (Molecular biology reports, 2014):

Target: T1, β2-chimaerin (Homo sapiens, UniProt P52757)
T1 sequence (P52757 1-468): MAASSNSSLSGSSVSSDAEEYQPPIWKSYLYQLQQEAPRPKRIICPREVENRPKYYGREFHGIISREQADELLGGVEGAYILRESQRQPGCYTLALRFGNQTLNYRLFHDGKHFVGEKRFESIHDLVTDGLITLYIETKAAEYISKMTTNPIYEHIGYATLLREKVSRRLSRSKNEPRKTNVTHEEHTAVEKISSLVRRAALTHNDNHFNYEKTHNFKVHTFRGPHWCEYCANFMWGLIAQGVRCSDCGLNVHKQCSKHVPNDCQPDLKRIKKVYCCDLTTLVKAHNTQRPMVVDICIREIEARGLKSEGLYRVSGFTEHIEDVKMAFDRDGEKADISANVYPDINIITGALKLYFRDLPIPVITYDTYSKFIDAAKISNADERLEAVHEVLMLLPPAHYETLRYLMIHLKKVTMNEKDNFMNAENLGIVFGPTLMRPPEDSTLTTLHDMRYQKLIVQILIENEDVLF
Assay type: cell-based

## CCCCCCCCCCCCCC(=O)O[C@@H]1[C@@H](C)[C@@]2(O)[C@@H](C=C(CO)C[C@]3(O)C(=O)C(C)=C[C@@H]23)[C@@H]2C(C)(C)[C@]12OC(C)=O [Phorbol 12-myristate 13-acetate]
  EC50: 1202 ± 1 nM
